Assay [1] concerns Bacillus atrophaeus ATCC 9372 spores. The following applies: 28% hydrogen peroxide, 65° C.
Source text: The mixture was then serially ten-fold diluted in saline and spread-plated on tryptic soy agar.
The test system is the same in assay [2]. The conditions noted are these: conventional usage regime; cited from earlier work.
Assay [3] shares this test system. Description: Efficacy usage regimes of hydrogen peroxide and peracetic acid as compared to performic acid. It is filed as cell-based. The following applies: performic acid regime per Table 3. How it is done:
For example, temperatures greater than about 55° C. to 65° C. and exposure times greater than about fifteen seconds may be employed in conventional techniques.

Where two headings read alike, the source gives them in different places.

`OO` [Hydrogen Peroxide, hydrogen peroxide]: the “contact time per one logarithm of spore inactivation” value in assay [1] is “seven”. Also, in assay [2], the “Efficacy usage regime: Temperature” value was 65 °C and the “Efficacy usage regime: Time” value is 15 to 30 s.

Take `CC(=O)OO` [Peracetic Acid, peracetic acid]: in assay [2], the “Efficacy usage regime: Temperature” value was 55 °C and the “Efficacy usage regime: Time” value was 15 s.

On to performic acid, for which, in assay [3], the “Efficacy usage regime: Temperature” value was “Room Temperature” and the “Efficacy usage regime: Time” value was found to be 5 s.

(Values after patent US9814796B2, “Methods for sterilization and/or disinfection” (P[…] OF NEVADA, LLC, priority 2015, dated 2017).)
